Data from the supplement of paper PMC11451515.

Assays:
Settings in all cases: 48 h
[1] = system: SEM cells; assay: AUC of viability dose-response curve (% viability x log10 dose units); higher = less sensitive
In short: (§1)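 Leukemia cells adapted to each medium were seeded in 1536-well plates (500 or 1000 cells/well). They were dosed with library compounds in DMSO at 11 threefold doses, 47 μM to 0.79 nM, for 48 h at 37°C. CellTiter-Glo One luminescence was normalised per plate to DMSO and cell-free wells. Area under the curve was integrated by trapezoidal rule over log10 doses on a four-parameter log-logistic fit; curves exceeding full viability were scaled and curves failing quality control removed.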

[2] = system: P12-Ichikawa; assay: as above
In short: as §1

[3] = system: NOMO1; assay: as above
In short: as §1

[4] = system: SEM cells; assay: cell viability relative to DMSO control; higher = less cytotoxic
In short: (§2)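 Viability is expressed as a percentage of DMSO wells within each plate, and cell-free wells serve as background. Seeding densities in the 1536-well plates (5 μl) were 500 cells/well for NOMO1 or SEM leukemia cells and 1000 cells/well for P12-Ichikawa. Each line was adapted for at least four passages in each medium. Library compounds in DMSO were pin-dosed at 47 μM to 0.79 nM (11 points, threefold), and CellTiter-Glo One luminescence was read after 48 h at 37°C.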

[5] = system: P12-Ichikawa; assay: as above
In short: as §2

[6] = system: NOMO1; assay: as above
In short: as §2

[7] = RPMI 5 mM glucose + 10% dialyzed FBS
[8] = HPLM + 10% dialyzed FBS, 0.000781 µM
[9] = HPLM + 10% dialyzed FBS, 0.00234 µM
[10] = HPLM + 10% dialyzed FBS, 0.00702 µM
[11] = HPLM + 10% dialyzed FBS, 0.0211 µM
[12] = HPLM + 10% dialyzed FBS, 0.0632 µM
[13] = HPLM + 10% dialyzed FBS, 0.19 µM
[14] = HPLM + 10% dialyzed FBS, 0.569 µM
[15] = HPLM + 10% dialyzed FBS, 1.71 µM
[16] = HPLM + 10% dialyzed FBS, 5.12 µM
[17] = HPLM + 10% dialyzed FBS, 15.4 µM
[18] = HPLM + 10% dialyzed FBS, 46.1 µM
[19] = RPMI 5 mM glucose + 10% FBS, 0.000781 µM
[20] = RPMI 5 mM glucose + 10% FBS, 0.00234 µM
[21] = RPMI 5 mM glucose + 10% FBS, 0.00702 µM
[22] = RPMI 5 mM glucose + 10% FBS, 0.0211 µM
[23] = RPMI 5 mM glucose + 10% FBS, 0.0632 µM
[24] = RPMI 5 mM glucose + 10% FBS, 0.19 µM
[25] = RPMI 5 mM glucose + 10% FBS, 0.569 µM
[26] = RPMI 5 mM glucose + 10% FBS, 1.71 µM
[27] = RPMI 5 mM glucose + 10% FBS, 5.12 µM
[28] = RPMI 5 mM glucose + 10% FBS, 15.4 µM
[29] = RPMI 5 mM glucose + 10% FBS, 46.1 µM
[30] = RPMI 5 mM glucose + 10% dialyzed FBS, 0.000781 µM
[31] = RPMI 5 mM glucose + 10% dialyzed FBS, 0.00234 µM
[32] = RPMI 5 mM glucose + 10% dialyzed FBS, 0.00702 µM
[33] = RPMI 5 mM glucose + 10% dialyzed FBS, 0.0211 µM
[34] = RPMI 5 mM glucose + 10% dialyzed FBS, 0.0632 µM
[35] = RPMI 5 mM glucose + 10% dialyzed FBS, 0.19 µM
[36] = RPMI 5 mM glucose + 10% dialyzed FBS, 0.569 µM
[37] = RPMI 5 mM glucose + 10% dialyzed FBS, 1.71 µM
[38] = RPMI 5 mM glucose + 10% dialyzed FBS, 5.12 µM
[39] = RPMI 5 mM glucose + 10% dialyzed FBS, 15.4 µM
[40] = RPMI 5 mM glucose + 10% dialyzed FBS, 46.1 µM

Q: What does the source list for `N[S+](=O)([O-])c1cccc2c1C(=O)c1cccc(O)c1C2=O`?
A: AUC of viability dose-response curve ([1]; HPLM + 10% dialyzed FBS): 343; AUC of viability dose-response curve ([1]; RPMI 5 mM glucose + 10% FBS): 295; AUC of viability dose-response curve [1, 7]: 278; AUC of viability dose-response curve ([2]; HPLM + 10% dialyzed FBS): 439; AUC of viability dose-response curve ([2]; RPMI 5 mM glucose + 10% FBS): 451; AUC of viability dose-response curve [2, 7]: 447; AUC of viability dose-response curve ([3]; HPLM + 10% dialyzed FBS): 434; AUC of viability dose-response curve ([3]; RPMI 5 mM glucose + 10% FBS): 452; AUC of viability dose-response curve [3, 7]: 443; cell viability [4, 8]: 84.4%; cell viability [4, 9]: 95.8%; cell viability [4, 10]: 98.9%; cell viability [4, 11]: 84.2%; cell viability [4, 12]: 91.8%; cell viability [4, 13]: 91.5%; cell viability [4, 14]: 61.6%; cell viability [4, 15]: 59.9%; cell viability [4, 16]: 53.7%; cell viability [4, 17]: 44.1%; cell viability [4, 18]: 3.56%; cell viability [4, 19]: 95.8%; cell viability [4, 20]: 96.3%; cell viability [4, 21]: 102%; cell viability [4, 22]: 68.9%; cell viability [4, 23]: 94.7%; cell viability [4, 24]: 83.2%; cell viability [4, 25]: 51.1%; cell viability [4, 26]: 44.2%; cell viability [4, 27]: 21.9%; cell viability [4, 28]: 4.54%; cell viability [4, 29]: 3.13%; cell viability [4, 30]: 89.4%; cell viability [4, 31]: 102%; cell viability [4, 32]: 96.1%; cell viability [4, 33]: 62.1%; cell viability [4, 34]: 95.1%; cell viability [4, 35]: 70%; cell viability [4, 36]: 40.8%; cell viability [4, 37]: 33.3%; cell viability [4, 38]: 18.3%; cell viability [4, 39]: 24.5%; cell viability [4, 40]: 3.78%; cell viability [5, 8]: 108%; cell viability [5, 9]: 106%; cell viability [5, 10]: 115%; cell viability [5, 11]: 111%; cell viability [5, 12]: 121%; cell viability [5, 13]: 114%; cell viability [5, 14]: 114%; cell viability [5, 15]: 118%; cell viability [5, 16]: 105%; cell viability [5, 17]: 80.9%; cell viability [5, 18]: 4.7%; cell viability [5, 19]: 102%; cell viability [5, 20]: 105%; cell viability [5, 21]: 108%; cell viability [5, 22]: 112%; cell viability [5, 23]: 116%; cell viability [5, 24]: 123%; cell viability [5, 25]: 106%; cell viability [5, 26]: 111%; cell viability [5, 27]: 96.7%; cell viability [5, 28]: 102%; cell viability [5, 29]: 3.97%; cell viability [5, 30]: 98.9%; cell viability [5, 31]: 95.8%; cell viability [5, 32]: 110%; cell viability [5, 33]: 106%; cell viability [5, 34]: 113%; cell viability [5, 35]: 121%; cell viability [5, 36]: 104%; cell viability [5, 37]: 112%; cell viability [5, 38]: 94.3%; cell viability [5, 39]: 92.8%; cell viability [5, 40]: 3.3%; cell viability [6, 8]: 105%; cell viability [6, 9]: 115%; cell viability [6, 10]: 112%; cell viability [6, 11]: 105%; cell viability [6, 12]: 119%; cell viability [6, 13]: 106%; cell viability [6, 14]: 107%; cell viability [6, 15]: 85%; cell viability [6, 16]: 91.6%; cell viability [6, 17]: 78.7%; cell viability [6, 18]: 4.98%; cell viability [6, 19]: 110%; cell viability [6, 20]: 101%; cell viability [6, 21]: 103%; cell viability [6, 22]: 98.5%; cell viability [6, 23]: 115%; cell viability [6, 24]: 107%; cell viability [6, 25]: 91.9%; cell viability [6, 26]: 94.9%; cell viability [6, 27]: 88.2%; cell viability [6, 28]: 97.1%; cell viability [6, 29]: 3.99%; cell viability [6, 30]: 97.6%; cell viability [6, 31]: 104%; cell viability [6, 32]: 97.3%; cell viability [6, 33]: 103%; cell viability [6, 34]: 102%; cell viability [6, 35]: 107%; cell viability [6, 36]: 108%; cell viability [6, 37]: 94.9%; cell viability [6, 38]: 94.3%; cell viability [6, 39]: 82.9%; cell viability [6, 40]: 4.93%
